From PMC3480357, “Fragment-Hopping-Based Discovery of a Novel Chemical Series of Proto-Oncogene PIM-1 Kinase Inhibitors” (PLoS ONE, 2012)

Assays:
[1] = design: method as in earlier work; settings: SuperGen press release; cited from earlier work
[2] = molecular target: PIM-2 (Homo sapiens, UniProt Q9P1W9); design: method as in PMID 21051136; settings: cited from earlier work
[3] = molecular target: AKT1 (Homo sapiens, UniProt P31749); design: method as in PMID 21051136; settings: 10 µM; average of two data points; cited from earlier work
[4] = molecular target: T1, ARK5 (Homo sapiens, UniProt O60285); design: method as in PMID 21051136; settings: 10 µM; average of two data points; cited from earlier work
T1 sequence (O60285 1-661): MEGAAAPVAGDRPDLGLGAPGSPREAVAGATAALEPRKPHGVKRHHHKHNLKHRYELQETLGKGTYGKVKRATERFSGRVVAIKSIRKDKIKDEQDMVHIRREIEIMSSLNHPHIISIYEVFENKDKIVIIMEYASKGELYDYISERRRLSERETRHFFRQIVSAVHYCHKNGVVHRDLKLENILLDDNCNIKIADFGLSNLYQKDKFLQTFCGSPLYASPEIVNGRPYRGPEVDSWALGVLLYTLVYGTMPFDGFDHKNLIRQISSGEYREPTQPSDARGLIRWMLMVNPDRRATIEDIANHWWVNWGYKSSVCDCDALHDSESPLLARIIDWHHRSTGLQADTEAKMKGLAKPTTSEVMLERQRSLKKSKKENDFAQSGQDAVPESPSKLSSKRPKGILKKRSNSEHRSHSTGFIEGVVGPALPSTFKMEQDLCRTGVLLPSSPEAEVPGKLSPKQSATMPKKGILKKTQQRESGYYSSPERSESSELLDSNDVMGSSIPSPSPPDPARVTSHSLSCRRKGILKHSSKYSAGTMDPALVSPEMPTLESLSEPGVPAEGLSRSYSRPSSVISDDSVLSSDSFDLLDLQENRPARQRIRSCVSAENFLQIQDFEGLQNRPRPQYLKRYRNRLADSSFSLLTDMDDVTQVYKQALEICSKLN

[5] = molecular target: B-RAF-V600E (Homo sapiens, UniProt P15056, V600E); design: method as in PMID 21051136; settings: 10 µM; average of two data points; cited from earlier work
[6] = molecular target: CK1-α1 (Homo sapiens, UniProt P48729); design: method as in PMID 21051136; settings: 10 µM; average of two data points; cited from earlier work
[7] = molecular target: EGF-R (Homo sapiens, UniProt P00533); design: method as in PMID 21051136; settings: 10 µM; average of two data points; cited from earlier work
[8] = molecular target: FAK (Homo sapiens, UniProt Q05397); design: method as in PMID 21051136; settings: 10 µM; average of two data points; cited from earlier work
[9] = molecular target: IGF1-R (Homo sapiens, UniProt P08069); design: method as in PMID 21051136; settings: 10 µM; average of two data points; cited from earlier work
[10] = molecular target: INS-R (Homo sapiens, UniProt P06213); design: method as in PMID 21051136; settings: 10 µM; average of two data points; cited from earlier work
[11] = molecular target: JAK2 (Homo sapiens, UniProt O60674); design: method as in PMID 21051136; settings: 10 µM; average of two data points; cited from earlier work
[12] = molecular target: JNK1 (Homo sapiens, UniProt P45983); design: method as in PMID 21051136; settings: 10 µM; average of two data points; cited from earlier work
[13] = molecular target: MET (Homo sapiens, UniProt P08581); design: method as in PMID 21051136; settings: 10 µM; average of two data points; cited from earlier work
[14] = molecular target: T2, MST1 (Homo sapiens, UniProt Q13043); design: method as in PMID 21051136; settings: 10 µM; average of two data points; cited from earlier work
T2 sequence (Q13043 1-487): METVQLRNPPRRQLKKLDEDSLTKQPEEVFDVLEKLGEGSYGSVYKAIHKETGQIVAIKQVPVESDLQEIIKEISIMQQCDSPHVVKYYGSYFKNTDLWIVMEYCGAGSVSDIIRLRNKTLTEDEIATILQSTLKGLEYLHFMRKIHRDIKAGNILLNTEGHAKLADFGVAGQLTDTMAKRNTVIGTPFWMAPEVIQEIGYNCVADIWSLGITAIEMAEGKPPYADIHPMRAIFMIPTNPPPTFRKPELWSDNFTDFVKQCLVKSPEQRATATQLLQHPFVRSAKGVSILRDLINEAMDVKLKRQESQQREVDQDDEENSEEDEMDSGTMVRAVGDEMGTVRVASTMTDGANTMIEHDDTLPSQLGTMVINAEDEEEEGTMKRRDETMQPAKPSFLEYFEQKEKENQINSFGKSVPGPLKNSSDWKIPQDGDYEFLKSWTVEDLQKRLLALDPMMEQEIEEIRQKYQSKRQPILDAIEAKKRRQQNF

[15] = molecular target: T3, SGK1 (Homo sapiens, UniProt O00141); design: method as in PMID 21051136; settings: 10 µM; average of two data points; cited from earlier work
T3 sequence (O00141 1-431): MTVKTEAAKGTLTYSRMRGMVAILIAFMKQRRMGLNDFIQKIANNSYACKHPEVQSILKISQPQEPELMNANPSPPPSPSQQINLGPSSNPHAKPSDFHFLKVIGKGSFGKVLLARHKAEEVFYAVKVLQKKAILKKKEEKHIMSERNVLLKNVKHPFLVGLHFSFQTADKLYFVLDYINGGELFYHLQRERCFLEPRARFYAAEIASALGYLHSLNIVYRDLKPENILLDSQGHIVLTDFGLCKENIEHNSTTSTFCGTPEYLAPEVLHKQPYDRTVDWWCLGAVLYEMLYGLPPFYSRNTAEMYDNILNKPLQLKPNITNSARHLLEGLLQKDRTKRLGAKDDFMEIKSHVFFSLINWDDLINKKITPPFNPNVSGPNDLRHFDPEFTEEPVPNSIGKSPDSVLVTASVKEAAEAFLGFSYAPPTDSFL

[16] = molecular target: hERG (Homo sapiens, UniProt Q12809); test: hERG radioligand binding assay using [3H]-astemizole; settings: duplicate
Chain of hERG (Q12809 whole entry): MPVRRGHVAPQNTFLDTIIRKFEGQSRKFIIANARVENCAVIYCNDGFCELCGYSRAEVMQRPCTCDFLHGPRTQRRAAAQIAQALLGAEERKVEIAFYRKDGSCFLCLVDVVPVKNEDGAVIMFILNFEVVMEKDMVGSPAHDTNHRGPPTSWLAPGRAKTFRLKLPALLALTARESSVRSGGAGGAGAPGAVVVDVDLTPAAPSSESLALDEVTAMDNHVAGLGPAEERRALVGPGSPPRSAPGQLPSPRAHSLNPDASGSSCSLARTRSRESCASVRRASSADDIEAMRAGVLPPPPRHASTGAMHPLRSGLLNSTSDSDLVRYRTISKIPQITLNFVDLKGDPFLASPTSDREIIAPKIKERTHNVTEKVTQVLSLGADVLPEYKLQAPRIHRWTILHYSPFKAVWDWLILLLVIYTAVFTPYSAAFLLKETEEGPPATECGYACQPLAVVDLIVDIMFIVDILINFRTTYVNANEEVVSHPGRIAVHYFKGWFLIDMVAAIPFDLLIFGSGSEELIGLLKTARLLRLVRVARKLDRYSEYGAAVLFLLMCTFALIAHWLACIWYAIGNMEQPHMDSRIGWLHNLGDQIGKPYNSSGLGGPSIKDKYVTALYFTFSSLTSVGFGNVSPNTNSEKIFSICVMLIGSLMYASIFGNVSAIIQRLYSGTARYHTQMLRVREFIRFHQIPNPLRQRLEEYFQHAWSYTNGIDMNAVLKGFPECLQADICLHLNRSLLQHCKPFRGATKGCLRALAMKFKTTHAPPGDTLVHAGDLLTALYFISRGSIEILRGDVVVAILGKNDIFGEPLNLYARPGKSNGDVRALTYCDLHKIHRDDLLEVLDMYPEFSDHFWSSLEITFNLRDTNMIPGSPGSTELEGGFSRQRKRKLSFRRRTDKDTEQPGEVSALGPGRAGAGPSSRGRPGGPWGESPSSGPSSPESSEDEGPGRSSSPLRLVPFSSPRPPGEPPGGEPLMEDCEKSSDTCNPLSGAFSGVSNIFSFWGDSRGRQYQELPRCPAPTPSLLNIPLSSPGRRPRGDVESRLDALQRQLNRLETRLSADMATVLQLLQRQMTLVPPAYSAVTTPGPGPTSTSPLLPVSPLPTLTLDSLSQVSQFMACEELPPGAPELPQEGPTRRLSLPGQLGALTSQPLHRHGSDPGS

Chain of MET (P08581 25-1390): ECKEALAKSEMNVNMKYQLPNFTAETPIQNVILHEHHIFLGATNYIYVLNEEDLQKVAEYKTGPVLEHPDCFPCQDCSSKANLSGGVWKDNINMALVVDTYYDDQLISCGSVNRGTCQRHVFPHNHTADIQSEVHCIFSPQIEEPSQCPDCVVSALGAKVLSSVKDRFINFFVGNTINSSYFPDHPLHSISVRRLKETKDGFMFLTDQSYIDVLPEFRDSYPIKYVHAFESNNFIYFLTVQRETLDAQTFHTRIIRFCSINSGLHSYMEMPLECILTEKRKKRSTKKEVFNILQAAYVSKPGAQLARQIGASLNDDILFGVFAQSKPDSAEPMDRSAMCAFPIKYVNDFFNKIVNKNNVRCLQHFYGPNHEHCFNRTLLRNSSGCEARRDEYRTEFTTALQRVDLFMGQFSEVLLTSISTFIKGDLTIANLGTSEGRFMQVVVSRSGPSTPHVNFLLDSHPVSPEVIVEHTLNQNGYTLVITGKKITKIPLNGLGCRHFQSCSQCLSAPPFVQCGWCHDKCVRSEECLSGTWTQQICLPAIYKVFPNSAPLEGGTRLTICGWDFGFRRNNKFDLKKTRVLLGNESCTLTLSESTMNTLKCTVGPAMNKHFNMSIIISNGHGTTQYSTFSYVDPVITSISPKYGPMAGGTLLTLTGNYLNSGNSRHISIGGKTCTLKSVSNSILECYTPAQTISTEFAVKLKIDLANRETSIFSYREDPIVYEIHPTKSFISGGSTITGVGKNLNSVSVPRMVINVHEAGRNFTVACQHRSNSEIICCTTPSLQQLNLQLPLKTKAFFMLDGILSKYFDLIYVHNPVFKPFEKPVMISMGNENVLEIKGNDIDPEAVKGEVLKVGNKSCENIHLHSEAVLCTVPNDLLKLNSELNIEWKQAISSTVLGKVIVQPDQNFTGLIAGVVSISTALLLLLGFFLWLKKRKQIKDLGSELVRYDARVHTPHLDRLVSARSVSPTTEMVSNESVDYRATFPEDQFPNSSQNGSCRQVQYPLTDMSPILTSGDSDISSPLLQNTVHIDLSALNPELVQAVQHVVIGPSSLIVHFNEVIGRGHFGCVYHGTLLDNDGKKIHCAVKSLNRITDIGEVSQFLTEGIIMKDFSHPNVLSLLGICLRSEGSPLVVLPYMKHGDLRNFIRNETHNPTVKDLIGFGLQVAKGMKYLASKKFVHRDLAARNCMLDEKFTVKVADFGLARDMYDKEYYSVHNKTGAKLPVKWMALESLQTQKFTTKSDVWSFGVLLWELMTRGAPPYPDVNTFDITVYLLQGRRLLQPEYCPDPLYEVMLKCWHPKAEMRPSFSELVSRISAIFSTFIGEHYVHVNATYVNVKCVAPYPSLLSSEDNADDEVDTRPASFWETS
Chain of IGF1-R (P08069 31-1367, species assumed): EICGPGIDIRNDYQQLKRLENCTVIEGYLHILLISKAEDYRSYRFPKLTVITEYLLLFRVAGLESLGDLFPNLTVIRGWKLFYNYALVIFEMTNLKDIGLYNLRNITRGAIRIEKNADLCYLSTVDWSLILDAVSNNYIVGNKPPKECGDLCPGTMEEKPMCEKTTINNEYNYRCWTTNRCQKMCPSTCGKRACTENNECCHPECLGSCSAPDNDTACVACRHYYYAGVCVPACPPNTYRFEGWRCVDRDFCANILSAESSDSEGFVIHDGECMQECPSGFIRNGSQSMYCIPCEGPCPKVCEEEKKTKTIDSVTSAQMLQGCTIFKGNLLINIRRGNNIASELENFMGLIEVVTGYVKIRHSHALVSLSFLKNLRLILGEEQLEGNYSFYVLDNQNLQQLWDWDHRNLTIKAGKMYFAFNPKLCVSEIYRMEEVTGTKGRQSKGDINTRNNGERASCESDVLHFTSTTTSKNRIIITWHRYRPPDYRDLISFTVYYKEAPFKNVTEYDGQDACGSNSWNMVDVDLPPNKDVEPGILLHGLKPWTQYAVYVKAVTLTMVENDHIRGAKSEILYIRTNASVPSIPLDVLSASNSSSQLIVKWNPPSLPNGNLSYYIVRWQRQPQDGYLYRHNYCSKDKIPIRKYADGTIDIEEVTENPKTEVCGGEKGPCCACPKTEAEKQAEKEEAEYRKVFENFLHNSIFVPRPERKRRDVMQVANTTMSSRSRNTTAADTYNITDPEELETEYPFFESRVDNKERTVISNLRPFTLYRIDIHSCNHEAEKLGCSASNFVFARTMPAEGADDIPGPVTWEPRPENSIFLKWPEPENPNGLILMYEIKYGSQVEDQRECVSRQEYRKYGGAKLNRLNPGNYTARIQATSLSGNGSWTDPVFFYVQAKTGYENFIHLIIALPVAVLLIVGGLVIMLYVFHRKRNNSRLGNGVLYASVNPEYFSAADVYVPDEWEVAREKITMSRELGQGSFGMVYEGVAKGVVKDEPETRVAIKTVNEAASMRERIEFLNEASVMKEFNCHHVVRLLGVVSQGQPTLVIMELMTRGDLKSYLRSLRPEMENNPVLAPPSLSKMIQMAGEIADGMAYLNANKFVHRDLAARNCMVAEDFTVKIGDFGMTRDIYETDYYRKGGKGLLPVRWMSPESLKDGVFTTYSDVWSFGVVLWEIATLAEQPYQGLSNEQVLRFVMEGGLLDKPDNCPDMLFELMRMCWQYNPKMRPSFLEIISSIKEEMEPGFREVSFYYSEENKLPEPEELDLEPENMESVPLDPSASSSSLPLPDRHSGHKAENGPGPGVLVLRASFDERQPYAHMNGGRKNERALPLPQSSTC
Chain of PIM-2 (Q9P1W9 whole entry): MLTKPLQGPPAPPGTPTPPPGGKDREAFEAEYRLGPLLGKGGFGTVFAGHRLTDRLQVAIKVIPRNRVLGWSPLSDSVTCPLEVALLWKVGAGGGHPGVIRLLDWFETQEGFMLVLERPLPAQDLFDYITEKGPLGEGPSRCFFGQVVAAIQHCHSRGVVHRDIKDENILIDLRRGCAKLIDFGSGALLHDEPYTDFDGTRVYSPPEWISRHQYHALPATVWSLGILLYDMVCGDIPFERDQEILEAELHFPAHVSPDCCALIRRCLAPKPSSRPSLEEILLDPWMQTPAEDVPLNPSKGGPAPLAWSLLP
Chain of AKT1 (P31749 whole entry, species assumed): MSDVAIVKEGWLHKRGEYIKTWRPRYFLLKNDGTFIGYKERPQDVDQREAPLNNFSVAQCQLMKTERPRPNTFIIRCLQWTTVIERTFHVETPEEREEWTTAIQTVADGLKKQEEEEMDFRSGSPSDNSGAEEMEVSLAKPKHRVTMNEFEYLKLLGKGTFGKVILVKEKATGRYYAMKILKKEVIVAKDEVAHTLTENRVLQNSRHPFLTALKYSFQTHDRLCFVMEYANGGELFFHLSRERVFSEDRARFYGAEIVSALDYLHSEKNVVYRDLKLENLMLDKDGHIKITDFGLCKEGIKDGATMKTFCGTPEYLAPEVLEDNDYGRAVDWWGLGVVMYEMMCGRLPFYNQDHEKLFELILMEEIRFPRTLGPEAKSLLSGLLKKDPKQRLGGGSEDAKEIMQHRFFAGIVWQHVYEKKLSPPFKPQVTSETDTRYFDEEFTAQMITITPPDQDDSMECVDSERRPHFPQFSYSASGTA
Chain of CK1-α1 (P48729 whole entry): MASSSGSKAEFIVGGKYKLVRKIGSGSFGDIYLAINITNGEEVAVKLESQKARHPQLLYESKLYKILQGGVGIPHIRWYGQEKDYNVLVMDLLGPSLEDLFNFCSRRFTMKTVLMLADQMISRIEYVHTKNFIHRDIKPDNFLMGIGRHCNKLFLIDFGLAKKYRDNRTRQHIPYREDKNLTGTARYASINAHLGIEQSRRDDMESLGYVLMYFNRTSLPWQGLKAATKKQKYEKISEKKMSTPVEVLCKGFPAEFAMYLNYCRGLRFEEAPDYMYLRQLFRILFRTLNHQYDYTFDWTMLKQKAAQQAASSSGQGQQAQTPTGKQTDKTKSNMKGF

## CN1CCC(CNc2ccc3ncc(-c4cccc(OC(F)(F)F)c4)n3n2)CC1 [Compound 3, reference compound]
[1]
  cardiac and pharmacokinetic data evaluation in Phase I trial: failed to demonstrate a safe therapeutic window

## Oc1ccc(-c2cnc3ccc(NCc4ccc(F)cc4)nn23)cc1 [Compound 1]
[2]
  IC50: 420 nM
[3]
  AKT1 percentage of inhibition: 0%
[4]
  ARK5 percentage of inhibition: 71%
[5]
  B-RAF-V600E percentage of inhibition: 54%
[6]
  CK1-α1 percentage of inhibition: 33%
[7]
  EGF-R percentage of inhibition: 33%
[8]
  FAK percentage of inhibition: 48%
[9]
  IGF1-R percentage of inhibition: 26%
[10]
  INS-R percentage of inhibition: 67%
[11]
  JAK2 percentage of inhibition: 48%
[12]
  JNK1 percentage of inhibition: 62%
[13]
  MET percentage of inhibition: 32%
[14]
  MST1 percentage of inhibition: 82%
[15]
  SGK1 percentage of inhibition: 73%

## CN1CCC(CNc2ccc3nnn(-c4cccc(OC(F)(F)F)c4)c3n2)CC1 [Compound 8, (1-Methyl-piperidin-4-ylmethyl)-[3-(3-trifluoromethoxy-phenyl)-3H-[1], [2], [3]triazolo[4,5-b]pyridin-5-yl]-amine]
[16]
  IC50: 5400 nM
